Measured values: patent US20160046618A1, “Cyclopropyl Fused Thiazin-2-Amine Compounds as Beta-Secretase Inhibitors and Methods of Use” (AMGEN INC., priority 2014, published 2016)

Columns and labels:
[1] = tested on: Aβ40 in conditioned medium of cells stably expressing Amyloid Precursor Protein (APP); experiment: In vitro BACE-1 cell-based assay (Aβ40 sandwich ELISA); conditions: BACE1 cell-based assay; read-out: IC50 IP (μM) BACE1 cell
Procedure, shortened: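 Read-out: time-resolved fluorescence (Streptavidin-Europium) of Aβ40 captured by pAb40 and detected with biotinylated 6E10 from supernatants of APP-stable cells. Cells were exposed to compound for 24 h, 10-point dose response, top dose 100 μM or 10 μM, 0.1% DMSO. IC50 fitted to percent of control.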

human recombinant BACE2 = human recombinant BACE2 (Homo sapiens (Human), UniProt Q9Y5Z0); experiment: In vitro enzymatic BACE2 FRET assay; format: biochemical; conditions: BACE2 FRET enzyme assay; read-out: IC50 IP (μM) BACE2 enzyme
Procedure, shortened: (§1)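 Read-out: dequenched fluorescence, excitation 488 nm, emission 590 nm, after proteolysis of a quenched peptide spanning the BACE cleavage site. Substrate at 50 nM, 1 h incubation, termination by Tris addition to neutral pH.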

Aβ 40 in rat CSF = experiment: In vivo inhibition of beta-secretase: Aβ40 reduction in rat CSF; conditions: after 4 h
Description: (§2) In Vivo Inhibition of Beta-Secretase
Several animal models, including mouse, rat, dog, and monkey, may be used to screen for inhibition of beta-secretase activity in vivo following administration of a test compound sample. Animals used in this invention can be wild type, transgenic, or gene knockout animals. For example, the Tg2576 mouse model, prepared and conducted as described in Hsiao et al., 1996, Science 274, 99-102, and other non-transgenic or gene knockout animals are useful to analyze in vivo inhibition of Amyloid beta peptide (Abeta) production in the presence of inhibitory test compounds. Generally, 2 to 18 month old Tg2576 mice, gene knockout mice or non-transgenic animals are administered test compounds formulated in vehicles, such as cyclodextran, phosphate buffers, hydroxypropyl methylcellulose or other suitable vehicles. One to twenty-four hours following the administration of compound, animals are sacrificed, and brains as well as cerebrospinal fluid (CSF) and plasma are removed for analysis of A-beta levels and drug or test compound concentrations (Dovey et al., 2001, Journal of Neurochemistry, 76,173-181) Beginning at time 0, animals are administered by oral gavage, or other means of delivery such as intravenous injection, an inhibitory test compound of up to 100 mg/kg in a standard, conventional formulation, such as 2% hydroxypropyl methylcellulose, 1% Tween80. A separate group of animals receive 2% hydroxypropyl methylcellulose, 1% Tween80 alone, containing no test compound, and serve as a vehicle-control group. At the end of the test period, animals are sacrificed and brain tissues, plasma or cerebrospinal fluid are collected. […] Homogenates are centrifuged at 355,000 g, 4° C. for 30 minutes. CSF or brain supernatants are then analyzed for the presence of A-beta peptide by specific sandwich ELISA assays based on ECL (Electrochemiluminescence) technology. For example, rat Abeta40 is measured using biotinylated-4G8 (Signet) as a capture antibody and Fab40 (an in-house antibody specific to the C-terminal of Abeta40) as a detection antibody. For example, 4 hours after administration of 30 mg/kg oral dose of the test compound in 2% hydroxypropyl methylcellulose, 1% Tween80 (pH2.2) to 200 g male Sprague Dawley rats, amyloid beta peptide levels are measured for reduction by X % and Y % in cerebrospinal fluid and brain, respectively, when compared to the levels measured in the vehicle-treated or control mice.
(§3) Actual vehicles used: Oral: 2% HPMC, 1% Tween80, pH 2.2
The compounds of the invention may be shown to reduce the formation and/or deposition of amyloid beta peptide in the cerebrospinal fluid (CSF) as well as in the brain of a mouse or rat at either 3 mpk, 10 mpk or 30 mpk (mpk=mg compound per kg weight of the animal) dosing concentrations after 4 h.

Aβ 40 in rat brain = experiment: In vivo inhibition of beta-secretase: Aβ40 reduction in rat brain; conditions: after 4 h
Description: as §2
Several animal models, including mouse, rat, dog, and monkey, may be used to screen for inhibition of beta-secretase activity in vivo following administration of a test compound sample. Animals used in this invention can be wild type, transgenic, or gene knockout animals. […] One to twenty-four hours following the administration of compound, animals are sacrificed, and brains as well as cerebrospinal fluid (CSF) and plasma are removed for analysis of A-beta levels and drug or test compound concentrations (Dovey et al., 2001, Journal of Neurochemistry, 76,173-181) Beginning at time 0, animals are administered by oral gavage, or other means of delivery such as intravenous injection, an inhibitory test compound of up to 100 mg/kg in a standard, conventional formulation, such as 2% hydroxypropyl methylcellulose, 1% Tween80. A separate group of animals receive 2% hydroxypropyl methylcellulose, 1% Tween80 alone, containing no test compound, and serve as a vehicle-control group. At the end of the test period, animals are sacrificed and brain tissues, plasma or cerebrospinal fluid are collected. […] Homogenates are centrifuged at 355,000 g, 4° C. for 30 minutes. CSF or brain supernatants are then analyzed for the presence of A-beta peptide by specific sandwich ELISA assays based on ECL (Electrochemiluminescence) technology. For example, rat Abeta40 is measured using biotinylated-4G8 (Signet) as a capture antibody and Fab40 (an in-house antibody specific to the C-terminal of Abeta40) as a detection antibody.
as §3

Recombinant Cat D = Recombinant Cat D (Homo sapiens (Human), UniProt P07339); experiment: In vitro enzymatic Cathepsin D (Cat D) FRET assay; format: biochemical; conditions: Cathepsin D FRET enzyme assay; read-out: IC50 IP (μM) CatD
Procedure, shortened: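 Human Cat D expressed in CHO cells was incubated for one hour in 0.05 M citrate pH 3.5, 5 mM CHAPS, 10% DMSO final, with 20 nM quenched FRET peptide substrate. Reactions were stopped with Tris buffer raising pH to neutrality. Cleavage was read as fluorescence at excitation 500 nm, emission 580 nm.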

human recombinant BACE1 = human recombinant BACE1 (Homo sapiens (Human), UniProt P56817); experiment: In vitro enzymatic BACE1 FRET assay; format: biochemical; conditions: BACE1 FRET enzyme assay; read-out: IC50 IP (μM) BACE1 enzyme
Procedure, shortened: as §1

human recombinant BACE1, sequence (P56817 46-501): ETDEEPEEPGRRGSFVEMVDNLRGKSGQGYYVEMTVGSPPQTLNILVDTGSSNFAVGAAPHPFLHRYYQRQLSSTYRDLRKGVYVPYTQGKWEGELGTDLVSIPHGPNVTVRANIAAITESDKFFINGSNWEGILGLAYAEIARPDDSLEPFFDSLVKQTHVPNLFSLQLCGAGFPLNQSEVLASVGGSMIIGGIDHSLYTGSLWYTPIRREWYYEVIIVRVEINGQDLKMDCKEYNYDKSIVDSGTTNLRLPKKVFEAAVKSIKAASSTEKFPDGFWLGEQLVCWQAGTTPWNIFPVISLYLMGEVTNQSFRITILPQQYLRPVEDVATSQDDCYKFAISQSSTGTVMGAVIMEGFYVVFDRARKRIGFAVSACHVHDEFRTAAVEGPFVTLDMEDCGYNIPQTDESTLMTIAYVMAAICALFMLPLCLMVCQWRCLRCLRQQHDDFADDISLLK
human recombinant BACE2, sequence (Q9Y5Z0 63-518): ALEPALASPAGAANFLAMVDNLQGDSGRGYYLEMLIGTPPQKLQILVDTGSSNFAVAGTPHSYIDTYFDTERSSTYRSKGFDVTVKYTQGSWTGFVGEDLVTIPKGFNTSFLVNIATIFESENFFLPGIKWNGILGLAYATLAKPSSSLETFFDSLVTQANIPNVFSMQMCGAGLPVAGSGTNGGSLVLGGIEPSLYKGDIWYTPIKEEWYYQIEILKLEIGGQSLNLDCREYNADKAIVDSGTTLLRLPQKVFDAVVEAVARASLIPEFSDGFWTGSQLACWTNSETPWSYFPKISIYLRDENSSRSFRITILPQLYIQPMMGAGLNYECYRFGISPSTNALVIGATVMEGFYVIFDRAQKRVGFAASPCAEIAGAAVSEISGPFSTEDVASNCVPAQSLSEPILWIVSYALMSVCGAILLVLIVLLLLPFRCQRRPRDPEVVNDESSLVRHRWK
Recombinant Cat D, sequence (P07339 65-412): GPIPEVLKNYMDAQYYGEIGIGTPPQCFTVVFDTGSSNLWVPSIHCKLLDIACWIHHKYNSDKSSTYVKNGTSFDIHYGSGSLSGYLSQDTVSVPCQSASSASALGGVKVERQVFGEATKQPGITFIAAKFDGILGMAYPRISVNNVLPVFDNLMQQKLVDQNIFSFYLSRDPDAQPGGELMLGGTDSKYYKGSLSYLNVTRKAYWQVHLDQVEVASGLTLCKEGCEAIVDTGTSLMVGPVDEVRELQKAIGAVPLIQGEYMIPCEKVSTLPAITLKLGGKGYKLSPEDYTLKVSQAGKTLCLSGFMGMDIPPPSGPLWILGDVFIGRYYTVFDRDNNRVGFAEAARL

SMILES	IC50 [1]	IC50 (human recombinant BACE2)	IC50 (Recombinant Cat D)	IC50 (human recombinant BACE1)	% Aβ 40 reduction in rat CSF at 10 mpk (Aβ 40 in rat CSF)	% Aβ 40 reduction in rat brain at 10 mpk (Aβ 40 in rat brain)	% Aβ 40 reduction in rat CSF (3 mpk) (Aβ 40 in rat CSF)	% Aβ 40 reduction in rat brain (3 mpk) (Aβ 40 in rat brain)
NC1=N[C@](CF)(c2cc(Nc3nccc4nc(OCc5ncco5)cnc34)ccc2F)C2C[C@@H]2S1 (stereo in doubt) [Example 56, N-(3-((1S,5S,6S)-3-amino-5-(fluoromethyl)-2-thia-4-azabicyclo[4.1.0]hept-3-en-5-yl)-4-fluorophenyl)-2-(1,3-oxazol-2-ylmethoxy)pyrido[3,4-b]pyrazin-5-amine]	0.0135 µM	0.27 µM	> 400 µM	0.00538 µM	50%	32%		
NC1=N[C@](CF)(c2cc(NC(=O)c3ccc(Cl)cn3)cc(F)c2F)[C@@H]2C[C@@H]2S1 [Example 5, N-(3-((1S,5S,6S)-3-amino-5-(fluoromethyl)-2-thia-4-azabicyclo[4.1.0]hept-3-en-5-yl)-4,5-difluorophenyl)-5-chloro-2-pyridinecarboxamide]	0.0326 µM	0.00154 µM	1420 µM	0.00855 µM	43%	19%		
N#Cc1ccc(C(=O)Nc2cc(F)c(F)c([C@@]3(CF)N=C(N)S[C@H]4C[C@H]43)c2)nc1 [Example 11, N-(3-((1S,5S,6S)-3-amino-5-(fluoromethyl)-2-thia-4-azabicyclo[4.1.0]hept-3-en-5-yl)-4,5-difluorophenyl)-5-cyano-2-pyridinecarboxamide]	0.0119 µM	0.0275 µM	> 400 µM	0.0104 µM			41 (3 mpk) %	25 (3 mpk) %
Cc1cc(C#N)cnc1C(=O)Nc1cc(F)c(F)c([C@@]2(CF)N=C(N)S[C@H]3C[C@H]32)c1 [Example 13, N-(3-((1S,5S,6S)-3-amino-5-(fluoromethyl)-2-thia-4-azabicyclo[4.1.0]hept-3-en-5-yl)-4,5-difluorophenyl)-5-cyano-3-methyl-2-pyridinecarboxamide]	0.00899 µM	0.00618 µM	> 400 µM	0.00548 µM	70%	56%		
C[C@]1(c2cc(Nc3nccc4cc(C#N)cnc34)cc(F)c2F)N=C(N)S[C@H]2C[C@H]21 [Example 21, 8-((3-((1S,5S,6S)-3-amino-5-methyl-2-thia-4-azabicyclo[4.1.0]hept-3-en-5-yl)-4,5-difluorophenyl)amino)-1,7-naphthyridine-3-carbonitrile]	0.0164 µM	0.00534 µM	> 133 µM	0.0145 µM	61%	40%		

The next molecules have a lower IC50 [1] than those just listed; values first:

IC50 [1]	IC50 (human recombinant BACE2)	IC50 (Recombinant Cat D)	IC50 (human recombinant BACE1)	SMILES	% Aβ 40 reduction in rat CSF at 10 mpk (Aβ 40 in rat CSF)	% Aβ 40 reduction in rat brain at 10 mpk (Aβ 40 in rat brain)	% Aβ 40 reduction in rat CSF (3 mpk) (Aβ 40 in rat CSF)	% Aβ 40 reduction in rat brain (3 mpk) (Aβ 40 in rat brain)
0.00871 µM	0.0022 µM	74.5 µM	0.00551 µM	NC1=N[C@](CF)(c2cc(NC(=O)c3ccc(Cl)cn3)ccc2F)[C@@H]2C[C@@H]2S1 [Example 1, N-(3-((1S,5S,6S)-3-amino-5-(fluoromethyl)-2-thia-4-azabicyclo[4.1.0]hept-3-en-5-yl)-4-fluorophenyl)-5-chloro-2-pyridinecarboxamide]	58%	28%		
0.00437 µM	0.0129 µM	> 400 µM	0.00747 µM	N#Cc1ccc(C(=O)Nc2ccc(F)c([C@@]3(CF)N=C(N)S[C@H]4C[C@H]43)c2)nc1 [Example 2, N-(3-((1S,5S,6S)-3-amino-5-(fluoromethyl)-2-thia-4-azabicyclo[4.1.0]hept-3-en-5-yl)-4-fluorophenyl)-5-cyano-2-pyridinecarboxamide]	72%	67%		
0.00064 µM	0.0394 µM	47.1 µM	0.0006 µM	C#CCOc1cnc(C(=O)Nc2cc(F)c(F)c([C@@]3(CF)N=C(N)S[C@H]4C[C@H]43)c2)cn1 [Example 20, N-(3-((1S,5S,6S)-3-amino-5-(fluoromethyl)-2-thia-4-azabicyclo[4.1.0]hept-3-en-5-yl)-4,5-difluorophenyl)-5-(2-propyn-1-yloxy)-2-pyrazinecarboxamide]	80%	76%		
0.00062 µM	0.0374 µM	81.9 µM	0.00047 µM	C#CCOc1cnc(C(=O)Nc2cc(F)c(F)c([C@@]3(C)N=C(N)S[C@H]4C[C@H]43)c2)cn1 [Example 23, N-(3-((1S,5S,6S)-3-amino-5-methyl-2-thia-4-azabicyclo[4.1.0]hept-3-en-5-yl)-4,5-difluorophenyl)-5-(2-propyn-1-yloxy)-2-pyrazinecarboxamide]			70 (3 mpk) %	61 (3 mpk) %
0.00383 µM	0.00169 µM	> 400 µM	0.00203 µM	COC[C@]12C[C@H]1[C@@](C)(c1cc(Nc3nccc4cc(C#N)cnc34)cc(F)c1F)N=C(N)S2 [Example 33, 8-((3-((1S,5S,6S)-3-amino-1-(methoxymethyl)-5-methyl-2-thia-4-azabicyclo[4.1.0]hept-3-en-5-yl)-4,5-difluorophenyl)amino)-1,7-naphthyridine-3-carbonitrile]	65%	53%		
0.00288 µM	0.00363 µM	213 µM	0.00386 µM	COC[C@]12C[C@H]1[C@@](C)(c1cc(Nc3ncnc4cc(Cl)cnc34)cc(F)c1F)N=C(N)S2 [Example 35, N-(3-((1S,5S,6S)-3-amino-1-(methoxymethyl)-5-methyl-2-thia-4-azabicyclo[4.1.0]hept-3-en-5-yl)-4,5-difluorophenyl)-7-chloropyrido[3,2-d]pyrimidin-4-amine]	63%	50%		
